Laboratory results as given in patent US6737383B1, “Herbicidal oxadiazolidines” (priority 1999, dated 2004).

What was measured:
sandbur = experiment: Test D sandbur; type: in vivo, Cenchrus echinatus; details: Preemergence, 0 to 100 scale
Procedure, shortened: (§1)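 Greenhouse pots, sandy loam, single species per pot. Preemergence tests: soil-surface application ≤1 day after planting. Compound formulated in non-phytotoxic solvent with surfactant. Visual rating 14–21 DAT, scale 0–100.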

blackgrass = experiment: Test E blackgrass; type: in vivo, Alopecurus myosuroides; details: Preemergence
winter barley = experiment: Test E winter barley; type: in vivo, Hordeum vulgare; details: Preemergence
giant foxtail = experiment: Test B pre/postemergence giant foxtail; type: in vivo, Setaria faberii
Procedure, shortened: (§2)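 Response is a visual 0-to-10 score relative to untreated plants, where 0 means no effect and 10 means complete control, taken twelve to sixteen days after application. Treatments went onto soil at planting and onto foliage of 1- to 4-leaf plants, using a surfactant-containing non-phytotoxic solvent.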

common pursiane = experiment: Test D common purslane; type: in vivo, Portulaca oleracea
Procedure, shortened: as §1

winter wheat [1] = experiment: Test E winter wheat; type: in vivo, Triticum aestivum; details: Postemergence
Procedure, shortened: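 Visually scored herbicidal effect relative to untreated plants, taken ~21 to 28 days post-application; compound in solvent with surfactant; postemergence sprays at the 1- to 4-leaf stage.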

duck salad = experiment: Test B flood test duck salad; type: in vivo, Heteranthera limosa
Procedure, shortened: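 Each value is a visual injury score relative to controls, with 10 meaning complete control and 0 no effect. Evaluation took place twelve to sixteen days after the 2-leaf-stage plants were treated and kept in the greenhouse.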

wild oat = experiment: Test E wild oat; type: in vivo, Avena fatua; details: Preemergence
wheat = experiment: Test B pre/postemergence wheat; type: in vivo, Triticum aestivum; details: for Plant response rating, Wheat: Rate 250 g/ha
Procedure, shortened: as §2

Spanishneedles = experiment: Test D Spanishneedles; type: in vivo, Bidens bipinnata; details: Preemergence, 0 to 100 scale
Procedure, shortened: as §1

Italian ryegrass = experiment: Test E Italian ryegrass; type: in vivo, Lolium multiflorum; details: Preemergence
winter wheat [2] = experiment: Test E winter wheat; type: in vivo, Triticum aestivum; details: Preemergence
crabgrass = experiment: Test B pre/postemergence crabgrass; type: in vivo, Digitaria sanguinalis
Procedure, shortened: as §2

large crabgrass = experiment: Test D large crabgrass; type: in vivo, Digitaria sanguinalis; details: Preemergence, 0 to 100 scale
Procedure, shortened: as §1

green foxtail = experiment: Test E green foxtail; type: in vivo, Setaria viridis; details: Preemergence, 0 to 100 scale
[3] = Rate 16 g/ha, 0 no injury, 100 complete control
[4] = Rate 32 g/ha, 0 no injury, 100 complete control
[5] = Rate 64 g/ha, 0 no injury, 100 complete control
[6] = Rate 125 g/ha, 0 no injury, 100 complete control
[7] = Rate 62 g/ha, 0 to 100 scale, 0 no effect, 100 complete control
[8] = Rate 125 g/ha, 0 to 100 scale (0 no effect, 100 complete control)
[9] = Postemergence, Rate 125 g/ha, scale of 0 to 10 where 0 is no effect and 10 is complete control
[10] = Postemergence, Rate 250 g/ha, scale 0 to 10, 0 no effect, 10 complete control
[11] = Preemergence, Rate 62 g/ha, scale 0 to 10 (0 no effect, 10 complete control)
[12] = Preemergence, Rate 125 g/ha, scale 0 to 10 (0 no effect, 10 complete control)
[13] = Preemergence, Rate 250 g/ha, scale of 0 to 10 where 0 is no effect and 10 is complete control
[14] = Preemergence, Rate 500 g/ha, scale 0 to 10 (0 no effect, 10 complete control)
[15] = Rate 62 g/ha, Postemergence, scale of 0 to 10 where 0 is no effect and 10 is complete control
[16] = Rate 500 g/ha, Postemergence, scale 0 to 10, 0 no effect, 10 complete control

Q: With CCn1c(=O)on(C(=O)N(c2ccc(Cl)cc2)C(C)C)c1=O [Compound 108] as the compound, how does the “Plant response rating, Sandbur” value (sandbur; [3]) read?
A: 0

Q: And the “Plant response rating, Sandbur” value (sandbur; [4])?
A: 0

Q: What about the “Sandbur plant response rating” value (sandbur; [5]) of the same compound?
A: 30

Q: And the “Sandbur plant response rating” value (sandbur; [6])?
A: 98

Q: What about the “Plant response rating, Sandbur” value (sandbur; Rate 250 g/ha) of the same compound?
A: 98

Q: And the “Plant response rating, Sandbur” value (sandbur; Rate 500 g/ha)?
A: 100

Q: What about the “Plant response rating, Blackgrass” value (blackgrass; [7]) of the same compound?
A: 40

Q: And the “Plant response rating, Blackgrass” value (blackgrass; [8])?
A: 75

Q: What about the “Plant response rating, Blackgrass” value (blackgrass; Rate 250 g/ha, 0 to 100 scale) of the same compound?
A: 90

Q: And the “Plant response rating, Barley (winter)” value (winter barley; [7])?
A: 10

Q: And the “Plant response rating, Barley (winter)” value (winter barley; [8])?
A: 20

Q: What about the “Plant response rating, Barley (winter)” value (winter barley; Rate 250 g/ha, 0 to 100 scale) of the same compound?
A: 10

Q: And the “Giant foxtail plant response rating” value (giant foxtail; [9])?
A: 7

Q: What about the “Giant foxtail plant response rating” value (giant foxtail; [10]) of the same compound?
A: 8

Q: What about the “Giant foxtail plant response rating” value (giant foxtail; [11]) of the same compound?
A: 10

Q: What about the “Plant response rating, Giant foxtail” value (giant foxtail; [12]) of the same compound?
A: 10

Q: And the “Plant response rating, Giant foxtail” value (giant foxtail; [13])?
A: 10

Q: And the “Giant foxtail plant response rating” value (giant foxtail; [14])?
A: 10

Q: What about the “Giant foxtail plant response rating” value (giant foxtail; [15]) of the same compound?
A: 5

Q: What about the “Giant foxtail plant response rating” value (giant foxtail; [16]) of the same compound?
A: 8

Q: And the “Plant response rating, C. purslane” value (common pursiane; Rate 16 g/ha; Preemergence; 0 to 100 scale, 0 no injury, 100 complete control)?
A: 0

Q: What about the “Plant response rating, C. purslane” value (common pursiane; Rate 32 g/ha; Preemergence; 0 to 100 scale, 0 no injury, 100 complete control) of the same compound?
A: 0

Q: And the “Plant response rating, C. purslane” value (common pursiane; Rate 64 g/ha, Preemergence; 0 to 100 scale, 0 no injury, 100 complete control)?
A: 0

Q: And the “Plant response rating, C. purslane” value (common pursiane; Rate 125 g/ha, Preemergence; 0 to 100 scale, 0 no injury, 100 complete control)?
A: 0

Q: What about the “Plant response rating, C. purslane” value (common pursiane; Rate 250 g/ha; Preemergence; 0 to 100 scale) of the same compound?
A: 0

Q: What about the “Plant response rating, C. purslane” value (common pursiane; Rate 500 g/ha, Preemergence; 0 to 100 scale) of the same compound?
A: 80

Q: And the “Plant response rating, C. purslane” value (common pursiane; Rate 500 g/ha; Preemergence; 0 to 100 scale)?
A: 0

Q: And the “Plant response rating, Wheat (winter)” value (winter wheat [1]; Rate 62 g/ha, 0 to 100 scale)?
A: 0

Q: What about the “Plant response rating, Wheat (winter)” value (winter wheat [1]; Rate 125 g/ha, 0 to 100 scale) of the same compound?
A: 20

Q: What about the “Plant response rating, Wheat (winter)” value (winter wheat [1]; Rate 250 g/ha, 0 to 100 scale (0 no effect, 100 complete control)) of the same compound?
A: 40

Q: What about the “Ducksalad plant response rating” value (duck salad; Postemergence (flood test species), Rate 125 g/ha, scale of 0 to 10 where 0 is no effect and 10 is complete control) of the same compound?
A: 0

Q: And the “Ducksalad plant response rating” value (duck salad; Rate 62 g/ha, Postemergence section, flood test species, scale of 0 to 10 where 0 is no effect and 10 is complete control)?
A: 0

Q: What about the “Ducksalad plant response rating” value (duck salad; Rate 250 g/ha, headed Pre-emergence (flood test species), scale 0 to 10 (0 no effect, 10 complete control)) of the same compound?
A: 0

Q: What about the “Plant response rating, Ducksalad” value (duck salad; Rate 500 g/ha, headed Pre-emergence (flood test species), scale 0 to 10 (0 no effect, 10 complete control)) of the same compound?
A: 0

Q: And the “Ducksalad plant response rating” value (duck salad; Rate 500 g/ha, listed under Postemergence (flood test species), scale 0 to 10, 0 no effect, 10 complete control)?
A: 0

Q: And the “Ducksalad plant response rating” value (duck salad; Rate 1000 g/ha, Pre-emergence (as headed), scale 0 to 10)?
A: 0

Q: What about the “Ducksalad plant response rating” value (duck salad; Rate 2000 g/ha, Pre-emergence (as headed), scale 0 to 10) of the same compound?
A: 0

Q: What about the “Ducksalad plant response rating” value (duck salad; flood test, listed under Postemergence, Rate 250 g/ha, scale 0 to 10, 0 no effect, 10 complete control) of the same compound?
A: 0

Q: And the “Plant response rating, Wild oat” value (wild oat; [7])?
A: 15

Q: What about the “Plant response rating, Wild oat” value (wild oat; [8]) of the same compound?
A: 30

Q: And the “Wheat plant response rating” value (wheat; [9])?
A: 0

Q: And the “Wheat plant response rating” value (wheat; [11])?
A: 0

Q: What about the “Wheat plant response rating (0 to 10 scale)” value (wheat; Preemergence, Rate 125 g/ha, 0 is no effect, 10 is complete control) of the same compound?
A: 0

Q: What about the “Plant response rating, Wheat” value (wheat; Preemergence, scale of 0 to 10 where 0 is no effect and 10 is complete control) of the same compound?
A: 2

Q: What about the “Wheat plant response rating” value (wheat; [14]) of the same compound?
A: 3

Q: And the “Wheat plant response rating” value (wheat; [15])?
A: 0

Q: What about the “Plant response rating, Wheat” value (wheat; Postemergence, scale 0 to 10, 0 is no effect, 10 is complete control) of the same compound?
A: 0

Q: And the “Wheat plant response rating” value (wheat; [16])?
A: 2

Q: What about the “Plant response rating, Spanishneedles” value (Spanishneedles; [3]) of the same compound?
A: 0

Q: What about the “Plant response rating, Spanishneedles” value (Spanishneedles; [4]) of the same compound?
A: 0

Q: What about the “Spanishneedles plant response rating” value (Spanishneedles; [5]) of the same compound?
A: 0

Q: And the “Spanishneedles plant response rating” value (Spanishneedles; [6])?
A: 0

Q: What about the “Plant response rating, Spanishneedles” value (Spanishneedles; Rate 500 g/ha) of the same compound?
A: 20

Q: And the “Plant response rating, I. Ryegrass” value (Italian ryegrass; [7])?
A: 20

Q: And the “Plant response rating, I. Ryegrass” value (Italian ryegrass; [8])?
A: 45

Q: What about the “Plant response rating, I. Ryegrass” value (Italian ryegrass; Rate 250 g/ha, 0 to 100 scale) of the same compound?
A: 95

Q: What about the “Plant response rating, Wheat (winter)” value (winter wheat [2]; [7]) of the same compound?
A: 0

Q: What about the “Plant response rating, Wheat (winter)” value (winter wheat [2]; [8]) of the same compound?
A: 10

Q: And the “Plant response rating, Wheat (winter)” value (winter wheat [2]; Rate 250 g/ha, 0 to 100 scale)?
A: 10

Q: What about the “Crabgrass plant response rating” value (crabgrass; [9]) of the same compound?
A: 8

Q: What about the “Crabgrass plant response rating” value (crabgrass; [10]) of the same compound?
A: 8

Q: And the “Crabgrass plant response rating” value (crabgrass; [11])?
A: 7

Q: And the “Plant response rating, Crabgrass” value (crabgrass; [12])?
A: 9

Q: And the “Plant response rating, Crabgrass” value (crabgrass; [13])?
A: 9

Q: What about the “Crabgrass plant response rating” value (crabgrass; [14]) of the same compound?
A: 10

Q: What about the “Crabgrass plant response rating” value (crabgrass; [15]) of the same compound?
A: 4

Q: And the “Crabgrass plant response rating” value (crabgrass; [16])?
A: 9

Q: And the “Plant response rating, Large crabgrass” value (large crabgrass; [3])?
A: 85

Q: What about the “Plant response rating, Large crabgrass” value (large crabgrass; [4]) of the same compound?
A: 100

Q: And the “Plant response rating, Large crabgrass” value (large crabgrass; [5])?
A: 100

Q: And the “Plant response rating, Large crabgrass” value (large crabgrass; [6])?
A: 100

Q: What about the “Plant response rating, Large crabgrass” value (large crabgrass; Rate 250 g/ha) of the same compound?
A: 100

Q: And the “Plant response rating, Large crabgrass” value (large crabgrass; Rate 500 g/ha)?
A: 100

Q: What about the “Plant response rating, Green foxtail” value (green foxtail; Rate 62 g/ha, 0 no effect, 100 complete control) of the same compound?
A: 65

Q: And the “Plant response rating, Green foxtail” value (green foxtail; Rate 250 g/ha)?
A: 90
